Data set [1] in a line: Systemic half-life after oral or intravenous administration in rats. The class given is in vivo, rats (Sprague-Dawley). The following applies: rats, oral solution. As to the method: (§1) Blood concentrations of the compounds omeprazole, lansoprazole, pantoprazole, rabeprazole, and test compounds were quantified using an achiral liquid chromatography tandem mass spectrometry method (LC-MS/MS). Systemic pharmacokinetic parameters were determined for omeprazole or lansoprazole using non-compartmental analysis in Watson® version 6.3, available from InnaPhase Corporation, Philadelphia, Pa.

The nature of data set [2]: Systemic half-life after oral or intravenous administration in dogs. Format: in vivo, dogs (beagle). The following applies: oral solution, unit inferred; for half-life: beagle, dog, blood, po, read-out: Dog T1/2 PPI (converted); for half-life / Dog T1/2 PPI: systemic half-life of the proton pump inhibitor; for Dog T1/2 Prodrug: half-life of intact prodrug, NC = plasma concentration of prodrug too low to calculate half-life, or undetected. As to the method: as §1

Setting [3] is: systemic half-life of the proton pump inhibitor, unit inferred.

As for `COc1ccnc(C[S+]([O-])c2nc3ccc(OC(F)F)cc3[nH]2)c1OC` (stereo not shown) [Pantoprazole, reference compound], the half-life was 41.8 min in data set [1] (Sprague-Dawley, rat, blood, systemic half-life of the proton pump inhibitor, unit inferred, read-out: Rat T1/2 PPI (converted)) and 44.6 min in data set [2]. `Cc1c(OCC(F)(F)F)ccnc1C[S+]([O-])c1nc2ccccc2n1S(=O)(=O)c1ccc(CC(=O)O)c(CC(=O)O)c1` (stereo not shown) [Compound 12] showed a Dog T1/2 PPI in data set [2] of 55.9 min.

In data set [1] (setting [3]), `Cc1cc(OCC(=O)O)cc(C)c1S(=O)(=O)n1c([S+]([O-])Cc2nccc(OCC(F)(F)F)c2C)nc2ccccc21` (stereo not shown) [Compound 34] gave a Rat T1/2 PPI of 66.6 min. `COC(=O)COc1ccc(S(=O)(=O)n2c([S+]([O-])Cc3ncc(C)c(OC)c3C)nc3cc(OC)ccc32)cc1` (stereo not shown) [Compound 20] registered a Dog T1/2 PPI in data set [2] of 162 min. On to `COCCCOc1ccnc(C[S+]([O-])c2nc3ccccc3n2S(=O)(=O)c2cccc(C(=O)O)c2)c1C` (stereo not shown) [Compound 30], for which, in data set [2], the Dog T1/2 Prodrug is 67.2 min and the Dog T1/2 PPI turned out to be 29.5 min. Consider `Cc1c(OCC(F)(F)F)ccnc1C[S+]([O-])c1nc2ccccc2n1S(=O)(=O)c1ccc(C(=O)O)c(OCC(=O)O)c1` (stereo not shown) [Compound 16], for which the Rat T1/2 PPI in data set [1] (setting [3]) worked out at 112 min. In data set [2], the Dog T1/2 PPI was 60 min.

In turn, `COc1ccnc(C[S+]([O-])c2nc3cc(OC(F)F)ccc3n2S(=O)(=O)c2ccc(OCC(=O)O)cc2)c1OC` (stereo not shown) [Compound 28] had a Rat T1/2 PPI in data set [1] (setting [3]) of 87 min. The same molecule showed a Dog T1/2 PPI in data set [2] of 157 min. `COCCCOc1ccnc(C[S+]([O-])c2nc3ccccc3n2S(=O)(=O)c2cc(C(=O)O)ccc2C)c1C` (stereo not shown) [Compound 31]: in data set [2], the Dog T1/2 Prodrug is 50.6 min and the Dog T1/2 PPI was found to be 51.3 min. For the molecule `Cc1c(OCC(F)(F)F)ccnc1C[S+]([O-])c1nc2ccccc2n1S(=O)(=O)c1ccc(C(=O)O)cc1` (stereo not shown) [Compound 36], in data set [1] (setting [3]), the Rat T1/2 PPI came to 23.3 min. As for `Cc1cc(OCC(=O)O)cc(C(C)C)c1S(=O)(=O)n1c([S+]([O-])Cc2nccc(OCC(F)(F)F)c2C)nc2ccccc21` (stereo not shown) [Compound 17], in data set [2], the Dog T1/2 Prodrug was 89.4 min and the Dog T1/2 PPI was determined as 67.8 min. Regarding `Cc1c(OCC(F)(F)F)ccnc1C[S+]([O-])c1nc2ccccc2n1S(=O)(=O)c1ccc(OCC(=O)O)cc1` (stereo not shown) [Compound 10], the Dog T1/2 PPI in data set [2] came to 59.3 min.

`Cc1c(OCC(F)(F)F)ccnc1C[S+]([O-])c1nc2ccccc2n1S(=O)(=O)c1ccc(C(=O)O)cc1` (stereo not shown) [Compound 18]: in data set [2], the Dog T1/2 Prodrug is 5.39 min and the Dog T1/2 PPI turned out to be 54.5 min.

In data set [2], `COc1ccc2c(c1)nc([S+]([O-])Cc1ncc(C)c(OC)c1C)n2S(=O)(=O)c1ccc(C(=O)O)c(C(=O)O)c1` (stereo not shown) [Compound 22] displayed a Dog T1/2 PPI of 233 min. `Cc1c(OCC(F)(F)F)ccnc1C[S+]([O-])c1nc2ccccc2n1S(=O)(=O)c1ccc(OCC(=O)O)c(OCC(=O)O)c1` (stereo not shown) [Compound 35] displayed a Rat T1/2 PPI in data set [1] (setting [3]) of 110 min. Take `COc1ccc(S(=O)(=O)n2c([S+]([O-])Cc3nccc(OCC(F)(F)F)c3C)nc3ccccc32)cc1CCC(=O)O` (stereo not shown) [Compound 38]: in data set [1] (half-life of intact prodrug, NC = plasma concentration of prodrug too low to calculate half-life, or undetected, unit not given), the “Rat T1/2 Prodrug” value is reported as 1.04 (0.35). In data set [1] (setting [3]), the Rat T1/2 PPI is 85.8 min. Take `COCCCOc1ccnc(C[S+]([O-])c2nc3ccccc3[nH]2)c1C` (stereo not shown) [Rabeprazole, reference compound]: the half-life in data set [2] is 22.1 min. Molecule `Cc1cc(C(=O)O)ccc1S(=O)(=O)n1c([S+]([O-])Cc2nccc(OCC(F)(F)F)c2C)nc2ccccc21` (stereo not shown) [Compound 37] yielded a Rat T1/2 PPI in data set [1] (setting [3]) of 131 min. For `COCCCOc1ccnc(C[S+]([O-])c2nc3ccccc3n2S(=O)(=O)c2ccc(C(=O)O)cc2)c1C` (stereo not shown) [Compound 33], in data set [2], the Dog T1/2 Prodrug was 44.8 min and the Dog T1/2 PPI is 53.6 min. Turning to `COCCCOc1ccnc(C[S+]([O-])c2nc3ccccc3n2S(=O)(=O)c2c(C)cc(OCC(=O)O)cc2C)c1C` (stereo not shown) [Compound 32], in data set [2], the Dog T1/2 Prodrug is 31.6 min and the Dog T1/2 PPI was determined as 91.2 min. Consider `Cc1ccc(S(=O)(=O)n2c([S+]([O-])Cc3nccc(OCC(F)(F)F)c3C)nc3ccccc32)cc1CCC(=O)O` (stereo not shown) [Compound 19], for which, in data set [2], the Dog T1/2 Prodrug is 110 min and the Dog T1/2 PPI came to 29 min.

Source of the values: patent publication US20050075371A1, “Methods and compositions for the oral administration of prodrugs of proton pump inhibitors” (ALLERGAN, INC., priority 2003, published 2005).
